Laboratory results as given in a melting point compilation (Tetko et al.; mined from patent text by program, amines drawn as free bases though some values may be those of a salt).

Q: Which melting point does the source give for CC[C@H](NS(=O)(=O)c1ccc(OC)cc1)C(=O)OC(C)(C)C here?
A: 82 °C

Q: With CCN1CCN(c2ccc(-c3[nH]nc4c3C(=O)c3c(NC(=O)NN5CCOCC5)cccc3-4)cc2)CC1 as the compound, how does the melting point read?
A: 245 °C

Q: Which melting point does the source give for O=C(O)C(=O)c1ccc(OC/C=C/c2ccc3ccccc3c2)cc1 here?
A: 142 to 143 °C

Q: With O=C(CBr)c1ccc(OCc2ccccc2)c(CCOCc2ccccc2)c1 as the compound, how does the melting point read?
A: 53 to 56 °C

Q: With CN(CCN1C(=O)c2ccccc2C(C)(C)C1=O)CCN1C(=O)c2ccccc2C(C)(C)C1=O as the compound, how does the melting point read?
A: 106 to 107 °C

Q: Which melting point does the source give for N=C(Cc1ccccc1)Nc1ncccc1OCc1ccccc1 here?
A: 114 to 116 °C

Q: For Nc1cc(N2CCCC2)c(F)cc1[N+](=O)[O-], which melting point is on record?
A: 115 to 116 °C

Q: Which melting point does the source give for CC(=NO)C(C)(C)NCCCNC(C)(C)C(Cn1cc(C)nc1[N+](=O)[O-])=NO here?
A: 140 to 141 °C

Q: With COc1cc(-c2ccccc2Cl)c(Cl)cc1C(=O)N1Cc2cccn2Cc2ccccc21 as the compound, how does the melting point read?
A: 209 to 211 °C

Q: For COc1ccc2c(c1)Cc1ccccc1C(=O)C2, which melting point is on record?
A: 105 to 106 °C

Q: For O=c1c2c(CCc3ccncc3)n[nH]c2c2cccnc2n1-c1cccc([N+](=O)[O-])c1, which melting point is on record?
A: 161 to 165 °C

Q: With Cc1cccc(C=Cc2ccccc2C#N)n1 as the compound, how does the melting point read?
A: 91 to 92 °C

Q: Which melting point does the source give for Cc1nc(N2CCC(Cc3ccc(F)cc3)C2=O)sc1C(=O)NCc1cccnc1 (stereo not given) here?
A: 169 to 170 °C

Q: For CS(=O)c1ccccc1CN1CCC(=O)C(C(c2ccc(F)cc2)c2ccc(F)cc2)C1 (stereo not given), which melting point is on record?
A: 187 to 189 °C

Q: With COc1ccc(C2(CNC(=S)NCC(C)C)OCCO2)cc1 as the compound, how does the melting point read?
A: 96 °C

Q: Which melting point does the source give for COc1cccc([C@H]2O[C@H](CC(=O)O)C(=O)N(CC(C)(C)CO)c3ccc(Cl)cc32)c1OC here?
A: 199 to 202 °C

Q: Which melting point does the source give for C=C(Cc1ccccc1C)C(=O)O here?
A: 82 to 83 °C

Q: For Cc1cc(-c2nn(-c3cccc(C(F)(F)F)c3)ccc2=O)n(-c2ccccc2)n1, which melting point is on record?
A: 167 to 168 °C

Q: With CCCCCCc1cnc(-c2ccc(F)cc2)nc1 as the compound, how does the melting point read?
A: 39 °C

Q: For Cc1cc(-c2ccc(Cl)cc2)nc2c(-c3nc(-c4ccc(S(N)(=O)=O)s4)no3)cnn12, which melting point is on record?
A: 253 °C

Q: Which melting point does the source give for N#Cc1cc(N2C(=O)CC(C(F)(F)F)CC2=O)c(F)cc1Cl here?
A: 210 to 212 °C

Q: Which melting point does the source give for COC(=O)c1cc(I)ccc1OC here?
A: 48 to 50 °C

Q: Which melting point does the source give for O=C(Nc1nc(C(F)(F)F)co1)C1c2ccccc2Oc2c(Cl)cccc21 (racemic) here?
A: 212 °C

Q: Which melting point does the source give for C=CCNc1ccc(N(CCO)CCO)cc1[N+](=O)[O-] here?
A: 73 to 75 °C

Q: Which melting point does the source give for COCOc1cccc2c(Br)cccc12 here?
A: 49 to 50 °C

Q: For COC(=O)c1ccccc1-c1ccc(CBr)cc1, which melting point is on record?
A: 51 to 53 °C

Q: Which melting point does the source give for Nc1c2c(cc3c1CCC3)CCC2 here?
A: 94.5 to 96.6 °C

Q: Which melting point does the source give for O=C(O)c1cccc(NC(=O)C(COC2CCCCO2)NS(=O)(=O)c2ccc(Cl)cc2)c1 (stereo not given) here?
A: 84 to 124 °C

Q: For NC(=O)Cn1c(=O)c(=O)[nH]c2ccccc21, which melting point is on record?
A: > 300 °C

Q: Which melting point does the source give for CCCc1nc2c(N)nc3cccnc3c2n1CCCCCC(=O)N1CCOCC1 here?
A: 148 to 150 °C

Q: Which melting point does the source give for CCOC(=O)C(C(=O)OCC)[C@H](C[N+](=O)[O-])c1ccccc1 here?
A: 45 to 47 °C

Q: For Cc1nc(C)c2c(n1)N(Cc1ccc(-c3ccccc3-c3nnnn3C(c3ccccc3)(c3ccccc3)c3ccccc3)cc1)C(=O)CC2, which melting point is on record?
A: 160 to 161 °C

Q: Which melting point does the source give for C/C(Cn1oc(=O)[nH]c1=O)=C(\C)c1cccc(OCc2nc(-c3ccc(C(F)(F)F)cc3)oc2C)c1 here?
A: 144 to 145 °C

Q: Which melting point does the source give for Cc1ccc(-n2nc(C#N)cc2-c2ccc(S(C)(=O)=O)cc2)cc1F here?
A: 167 to 168 °C

Q: For NS(=O)(=O)OCCOc1cccc(Cl)c1, which melting point is on record?
A: 66 to 69 °C

Q: Which melting point does the source give for COC(=O)c1ccc2nc3c(nc2c1)SC(C#N)=C(C#N)S3 here?
A: 133 to 135 °C

Q: For O=C1C(Cl)=C(Nc2ccc(O)cc2)C(=O)c2ccccc21, which melting point is on record?
A: 233 °C

Q: Which melting point does the source give for O=C(Nc1cc(Cl)cc(Cl)c1)c1ccc(Cl)cc1O here?
A: 255 to 256 °C

Q: Which melting point does the source give for COc1ccc(-c2ccc(N(C)C)cc2)cc1C=O here?
A: 113 to 115 °C

Q: For O=C(C(=O)c1cnn(CC(F)(F)F)c1)c1cccc(Br)c1, which melting point is on record?
A: 66 to 67 °C

Q: With Clc1cccc(Cn2cnc3c(-c4ccco4)nc(Cl)nc32)c1 as the compound, how does the melting point read?
A: 196 to 198 °C

Q: For CCCNC(=O)Oc1ccc2c(ccn2N(CCC)c2ccncc2)c1, which melting point is on record?
A: 120 to 122 °C

Q: Which melting point does the source give for COc1ccc(COC(=O)c2ccc3ccccc3c2O)cc1 here?
A: 92 to 93 °C

Q: For O=[N+]([O-])c1ccc(/C=C/c2c(F)cccc2F)cc1, which melting point is on record?
A: 136 to 137 °C

Q: With Cn1cc(C(=O)O)c(=O)c2cc(F)c(-n3cccc3)cc21 as the compound, how does the melting point read?
A: 284 to 285 °C

Q: With CC(C(=O)O)c1ccc2nc(-c3ccccc3)ccc2c1 (stereo not given) as the compound, how does the melting point read?
A: 161 to 162 °C

Q: Which melting point does the source give for Cc1c(C(=O)Nc2ccc(N3CCN(CCCc4cccnc4)CC3)c(C#N)c2)cnn1-c1ccc(Cl)cc1 here?
A: 201 to 203 °C

Q: For CCOc1ccccc1OC(c1ccccc1)C(O)CN (stereo not given), which melting point is on record?
A: 98.5 to 99.9 °C

Q: For CC(C)N(CCN1C(=O)/C(=N/NC(N)=O)c2cc(Cl)ccc21)C(C)C, which melting point is on record?
A: 154 to 155 °C

Q: For NN1CCC2(CC1)OC(c1ccccc1)c1ccccc12 (stereo not given), which melting point is on record?
A: 143 to 145 °C
